Structures are written as SMILES.

The species entered for assay [1] is Homo sapiens. As to the kind of experiment: Compound was testd for inhibition of glucose transport human erythrocytes using [H]-forskolin as radioligand. The assay is classed as functional, organism-based.
The species entered for assay [2] is Homo sapiens. As to the kind of experiment: Compound was testd for inhibition of glucose transport human platelets using [H]-forskolin as radioligand. Type of assay: functional, organism-based.
For assay [3], the species on record is Rattus norvegicus. As to the kind of experiment: Compound was tested for inhibition of glucose transport in adipocytes plasma membrane vesicles using [H]-forskolin as radioligand. Type of assay: functional.
The species entered for assay [4] is Rattus norvegicus. As to the kind of experiment: Compound was tested for inhibition of glucose transport in rat adipocyte. Type of assay: functional, organism-based.

In general, EC50 refers to the midpoint of the concentration-response curve. For the compound `C=C[C@@]1(C)CC(=O)[C@]2(O)[C@@]3(C)[C@@H](O)CCC(C)(C)[C@@H]3[C@H](O)[C@H](OC(C)=O)[C@@]2(C)O1` [COLFORSIN], the EC50 in the assay listed under Homo sapiens [1], in the assay listed under Homo sapiens [2] and in the assay listed under Rattus norvegicus [3] was 0.24 µM in each case.
In the case of `C=C[C@@]1(C)CC(=O)[C@]2(O)[C@@]3(C)[C@@H](O)CCC(C)(C)[C@@H]3[C@H](O)[C@H](O)[C@@]2(C)O1`, in the assay listed under Rattus norvegicus [3], the midpoint of the response, the EC50, lay at 7.1 µM. That is a single-digit micromolar value.
For orientation: Ki means a dissociation constant, usually derived from enzyme kinetics or from competition with a known ligand. In turn, `CC(=O)O[C@@H]1[C@@H](O)[C@H](O)[C@@H](CO)O[C@@H]1O` had a Ki in the assay listed under Rattus norvegicus [4] of 8500 µM. This counts as millimolar.

The values are drawn from ChEMBL document CHEMBL1131766, “On the analogy between forskolin and D-glucose” (Bioorg Med Chem Lett, 1999).
